From patent publication US20130288964A1, “Use of peptides for promoting wound healing” (priority 2008, published 2013)
Like-named read-outs stand apart in the source and are kept apart here. Where no end group is shown, it is not given here.

Columns and labels:
[1] = test system: human buccal epithelial cell line TR146; experiment: In vitro wound healing (scratch wound closure) experiments; type: cell-based; details: for Wound closure rel. clos. ± SD: closure approx. 16 h after wounding relative to negative control, synthetic peptides in SFM, * significant
Experimental: The human buccal epithelial cell line TR146 (Rupniak et al; J Natl Cancer Inst. 1985 October; 75(4):621-35) was kindly provided by Cancer Research UK. Cells were grown in Dulbecco's modified Eagle medium with 4.5 g/l glucose (Invitrogen), 10% FCS (HyClone) and […] penicillin, […] streptomycin, and 250 ng/ml amphotericinB (Antibiotic antimyotic solution, Sigma,), at 37° C., 95% humidity and 5% CO2. Cells were maintained until near confluence and then briefly treated with 0.25% trypsin-EDTA lx (Invitrogen) to detach them, counted in a hepacytometer and seeded into new flasks or multi-well plates at the required cell density of about 1.5×10×5 cells/well.
Wound assays were performed as previously described (Matthay et al., 1993, J Cell Sci. 106 (Pt 3):869-78). In brief, cells were grown in 12-well plates until confluence, and then were serum deprived for 24 hours in keratinocyte serum free medium (SFM (Invitrogen)). In each well a scratch was made in the cellular monolayer using a sterile tip. The wounded monolayer was washed with SFM to remove cellular debris, and the following conditions were applied: • (i) Whole saliva and salivary secretions applied in 30% (v/v) in SFM. As a negative control 30% (v/v) saliva buffer was used. • (ii) (ii) rhEGF (Invitrogen) as a positive control • (iii) rp-HPLC fractions containing salivary proteins; • (iv) synthetic peptides: the experiments with isolated proteins and synthetic peptides were performed in full SFM.
The width of the wound area was determined microscopically immediately after wound creation and at approximately 16 hours after wounding. The relative closure was calculated by relating the closure to that of the negative control.
For inhibitor studies; directly after wounding cells were exposed to inhibitors of ERK1/2 (U0126, 5 μM, LC Laboratories), EGFR (AG1478, 1 μM, Calbiochem), and p38 MAPK (SB203580, 5 μM; LC Laboratories). Experiments were done in quadruplicate and analyzed using One-way ANOVA to determine significance with additional LSD post hoc test, P<0.05 was considered significant.

[2] = Candicidal activity LC50 ± SD
Experimental: 2.3 Potency of Histatin induced wound closure, stereo-specificity of Histatin 2, candidacidal activities of the different histatins. Next the potency of the different Histatins in both wound healing as their candidacidal activities was studied. Histatins are known for their antimicrobial activity.
We tested synthesized Histatins 1, 2, 3, 5 and the enantiomer of Histatin 2 (designated D-Histatin 2) on wound closure and candidacidal activities. In the test concentrations of 1, 5, 10, 30 and 50 μg/ml of the peptides were tested.

epithelial cells = experiment: Internalization of FITC labeled histatin in epithelial cells (microscopy); type: cell-based, human; details: FITC labeled histatin incubated two hours (data not shown)
Experimental: Microscope: Leica DM IL PLAN 4-40x magnification, 0.5 lens; camera: Leica DFC320; and acquisition software: Leica IM500. Images were quantified using Adobe Photoshop CS3. Additionally, brightness/contrast levels of the co-localization studies were altered with Adobe Photoshop CS3. FITC labeled histatin was incubated with the cells for two hours. PI was added to check for membrane disruptive dependent internalization. 100 mM Azide was used for 1 hour. Cells were trypsinized as described above. Co-localization studies were performed using Mitotracker (Invitrogen) and Lysotracker (Invitrogen) following manufacturer's instructions. In Candida Histatin 5 is internalized and associates with the energized mitochondrion. Given the abovementioned discrepancy between C. albicans and epithelial cells we were very interested whether histatins become internalized and where in the cells they accumulate. […] NaN3 inhibits the function of cytochrome c oxidase by binding irreversibly to the heme cofactor. Thus, NaN3 treatment lead us to conclude that the internalization energy dependent. […] Which, in addition to the stereo-specificity, is indicating a receptor mediated process. We used mitochondria and acidic lysosome specific markers to elucidate histatin's fate once it is internalized

Compound	Wound closure rel. clos. ± SD [1]	induction of wound closure ([1]; synthesized peptides, 1-50 μg/ml)	optimal concentration for wound closure ([1]; tested at 1, 5, 10, 30 and 50 μg/ml) [µg/mL]	CC50 ([2]; 1 mM PPB) [µM]	CC50 ([2]; SFM) [µM]	internalization into epithelial cells (epithelial cells)	relative wound closure ([1]; peptide concentration 1*10-3 μM, 1 = no peptide added (FIG. 4))	induction of wound closure ([1]; EGF 5 ng/ml)	induced wound closure with EGF receptor blocked ([1]; EGFR inhibitor AG1478 1 μM)	MAPK pathway dependence of induced wound closure ([1]; inhibitors U0126 5 μM (ERK1/2), SB203580 5 μM (p38 MAPK), FIG. 2)
CC(C)C[C@H](NC(=O)[C@H](Cc1ccc(O)cc1)NC(=O)[C@H](CC(N)=O)NC(=O)[C@H](CO)NC(=O)[C@H](CCCNC(=N)N)NC(=O)[C@H](Cc1ccc(O)cc1)NC(=O)CNC(=O)[C@H](CCCNC(=N)N)NC(=O)[C@H](Cc1c[nH]cn1)NC(=O)[C@H](CO)NC(=O)[C@H](Cc1c[nH]cn1)NC(=O)[C@H](Cc1c[nH]cn1)NC(=O)[C@H](CCCCN)NC(=O)[C@H](CCC(=O)O)NC(=O)[C@H](Cc1c[nH]cn1)NC(=O)[C@H](Cc1ccccc1)NC(=O)[C@H](CCCCN)NC(=O)[C@H](CCCNC(=N)N)NC(=O)[C@H](CCCCN)NC(=O)[C@H](Cc1ccc(O)cc1)NC(=O)CNC(=O)[C@H](Cc1c[nH]cn1)NC(=O)[C@H](Cc1c[nH]cn1)NC(=O)[C@H](CCCNC(=N)N)NC(=O)[C@H](CCCCN)NC(=O)[C@H](C)NC(=O)[C@H](Cc1c[nH]cn1)NC(=O)[C@H](CO)NC(=O)[C@@H](N)CC(=O)O)C(=O)N[C@@H](Cc1ccc(O)cc1)C(=O)N[C@@H](CC(=O)O)C(=O)N[C@@H](CC(N)=O)C(=O)O [Histatin 3]	1.21 ± 0.12*	induce wound closure	30 to 50	1.1 ± 0.1	> 100	are internalized	–	–	–	–
C-HST1: cyclic peptide having the amino acid sequence according to SEQ. ID. NO. 4, Histatin 1 (DSHEKRHHGYRRKFHEKHHSHREFPFYGDYGSNYLYDN; also: cyclic (type and places not given here))	–	–	–	–	–	–	1.5	–	–	–
EGF: epidermal growth factor; rhEGF (Invitrogen) as a positive control	1.41 ± 0.12*	–	–	–	–	–	–	able to induce wound closure	abolished the effect	p38^MAPK dependent
